The values below come from US20050143328A1, “COMPOSITION AND TREATMENT FOR ENVELOPE VIRUS INFECTIONS” (priority 2003, published 2005).

In the assay the test system is herpes simplex I. The assay can be described thus: Topical treatment of herpes simplex I / cold sores with a neomycin B composition. The class given is in vivo. Particulars: between 3.5 and 5 mg/g neomycin B combined with pramoxine hydrochloride in petroleum jelly. From the text: Example 2: This embodiment of the invention is a compound similar to that disclosed in Example 1, except that it is specifically targeted to the treatment of herpes simplex I and the prevention of physiological manifestations of herpes simplex I (e.g., cold sores). […] However, for longer-term use or storage, preservatives like methylparaben are utilized to avoid contamination, and the ingredients preferably comprise an emulsion or suspension to distribute evenly the physiologically active ingredients.

Consider `NC[C@@H]1O[C@H](O[C@H]2[C@@H](O)[C@H](O[C@@H]3[C@@H](O)[C@H](N)C[C@H](N)[C@H]3O[C@H]3O[C@H](CN)[C@@H](O)[C@H](O)[C@H]3N)O[C@@H]2CO)[C@H](N)[C@@H](O)[C@@H]1O` [neomycin B], for which the “outcome of the experiment (treatment of herpes simplex I and prevention of its manifestations, e.g. cold sores)” value is “ultimately effective”.
